Values quoted from earlier work in US20250339399A1, “SUPRAMOLECULAR SELF-ASSEMBLY SYSTEM” (Beijing Creatron Institute of Pharmaceutical Research Co., …, priority 2022, published 2025).

Conditions: Cannabidiol derivatives, Table 30 (chemical structures); cited from earlier work

Compound	Log P
C=C(C)[C@@H]1CCC(C)=C[C@H]1c1c(O)cc(CCC)cc1O [compound 3, ((1′R,2′R)-5′-methyl-2′-(prop-1-en-2-yl)-4-propyl-1′,2′,3′,4′-tetrahydro-[1,1′-biphenyl]-2,6-diol)]	Log P = 5.44 H-D:2,H-R = 2
C=C(C)[C@@H]1CCC(C)=C[C@H]1c1c(O)cc(CCCC)cc1O [compound 4, ((1′R,2′R)-4-butyl-5′-methyl-2′-(prop-1-en-2-yl)-1′,2′,3′,4′-tetrahydro-[1,1′-biphenyl]-2,6-diol)]	Log P = 5.88 H-D:2,H-R = 2
C=C(C)[C@@H]1CCC(C)=C[C@H]1c1c(O)cc(CCC)c(C(=O)O)c1O [compound 6, ((1′R,2′R)-2,6-dihydroxy-5′-methyl-2′-(prop-1-en-2-yl)-4-propyl-1′,2′,3′,4′-tetrahydro-[1,1′-biphenyl]-3-carboxylic acid)]	5.74
C=C(C)[C@@H]1CCC(C)=C[C@H]1c1c(O)cc(CCCCC)cc1OC [compound 7, ((1′R,2′R)-6-methoxy-5′-methyl-4-pentyl-2′-(prop-1-en-2-yl)-1′,2′,3′,4′-tetrahydro-[1,1′-biphenyl]-2-ol)]	Log P = 6.47 H-D:1,H-R = 2
C=C(C)c1ccc(C)cc1-c1c(O)cc(CCCCC)cc1O [compound 8, (5′-methyl-4-pentyl-2′-(prop-1-en-2-yl)-[1,1′-biphenyl]-2,6-diol)]	Log P = 6.85 H-D:2,H-R = 2
C=C(C)[C@@H]1CCC(C(=O)O)=C[C@H]1c1c(O)cc(CCCCC)cc1O [compound 10, ((1R,6R)-2′,6′-dihydroxy-4′-pentyl-6-(prop-1-en-2-yl)-1,4,5,6-tetrahydro-[1,1′-biphenyl]-3-carboxylic acid)]	5.52
C=C(C)[C@@H]1CCC(CO)=C[C@H]1c1c(O)cc(CCCCC)cc1O [compound 11, ((1′R,2′R)-5′-(hydroxymethyl)-4-pentyl-2′-(prop-1-en-2-yl)-1′,2′,3′,4′-tetrahydro-[1,1′-biphenyl]-2,6-diol)]	Log P = 5.04 H-D:3,H-R = 3
C=C(C)[C@H]1CC[C@H](C)C[C@@H]1c1c(O)cc(/C=C/c2ccccc2)cc1O [compound 14, (2-((1S,2S,5S)-5-methyl-2-(prop-1-en-2-yl)cyclohexyl)-5-((E)-styryl)phenyl-1,3-diol)]	Log P = 6.78 H-D:2,H-R = 2
C=C(C)[C@H]1CC[C@H](C)C[C@@H]1c1c(O)cc(/C=C/c2ccccc2O)cc1O [compound 15, (5-((E)-2-hydroxystyryl-2-(1S,2S,5S)-5-methyl-2-(prop-1-en-2-yl)cyclohexyl)phenyl-1,3-diol)]	Log P = 6.48 H-D:3,H-R = 3
C=C(C)[C@H]1CC[C@H](C)C[C@@H]1c1c(O)cc(-c2cc3ccccc3o2)cc1O [compound 16]	Log P = 6.17 H-D:2,H-R = 2
C=C(C)[C@H]1CCC(C)=C[C@@H]1c1c(O)cc(O)c(C(=O)CCc2ccccc2)c1O [compound 18, (3-phenyl-1-((1′S,2′S)-2,4,6-trihydroxy-5′-methyl-2′-(prop-1-en-2-yl)-1′,2′,3′,4′-tetrahydro-[1,1′-biphenyl]-3-yl)prop-1-one)]	Log P = 6.87 H-D:3,H-R = 4
C=C(C)[C@H]1CCC(C)=C[C@@H]1c1c(O)cc(CCCCC)cc1O [compound 19, ((1′S,2′S)-5′-methyl-4-pentyl-2′-(propanediol-1-en-2-yl)-1′,2′,3′,4′-tetrahydro-[1,1′-biphenyl]-2,6-diol)]	Log P = 6.33 H-D:2,H-R = 2
CCCCCc1cc(O)c([C@@H]2C=C(C)CC[C@H]2C(C)C)c(O)c1 [compound 20, ((1′S,2′S)-2′-isopropyl-5′-methyl-4-pentyl-1′,2′,3′,4′-tetrahydro-[1,1′-biphenyl]-2,6-diol)]	Log P = 6.67 H-D:2,H-R = 2
CCCCCc1cc(O)c([C@@H]2CC(C)CC[C@H]2C(C)C)c(O)c1 (stereo partly drawn) [compound 21, (2-((1R,2S)-2-isopropyl-5-methylcyclohexyl)-5-pentylbenzene-1,3-diol)]	Log P = 7.08 H-D:2,H-R = 2
CCCCCc1cc(O)c([C@@H]2C=C(CO)CC[C@H]2C(C)C)c(O)c1 [compound 22, ((1′S,2′S)-5′-(hydroxymethyl)-2′-isopropyl-4-pentyl-1′,2′,3′,4′-tetrahydro-[1,1′-biphenyl]-2,6-diol)]	Log P = 5.39 H-D:3,H-R = 3
CCCCCc1cc(O)c([C@H]2C=C(CO)CC[C@H]2C(C)C)c(O)c1 [compound 23, ((1′R,2′S)-5′-(hydroxymethyl)-2′-isopropyl-4-pentyl-1′,2′,3′,4′-tetrahydro-[1,1′-biphenyl]-2,6-diol)]	Log P = 5.39 H-D:3,H-R = 3
C=C(C)[C@@H]1CCC(C)=C[C@H]1c1c(O)cc(C(C)(C)CCCCCC)cc1O [compound 24, ((1′R,2′R)-5′-methyl-4-(2-methyloctan-2-yl)-2′-(prop-1-en-2-yl)-1′,2′,3′,4′-tetrahydro-[1,1′-biphenyl]-2,6-diol)]	Log P = 7.38 H-D:2,H-R = 2

Compound	Log P
C=C(C)[C@@H]1CCC(C(=O)O)=C[C@H]1c1c(O)cc(C(C)(C)CCCCCC)cc1O [compound 25, ((1R,6R)-2′,6′-dihydroxy-4′-(2-methyloctan-2-yl)-6-(prop-1-en-2-yl)-1,4,5,6-tetrahydro-[1,1′-biphenyl]-3-carboxylic acid)]	Log P = 6.99 H-D:3,H-R = 4
C=C(C)[C@@H]1CCC(CO)=C[C@H]1c1c(O)cc(C(C)(C)CCCCCC)cc1O [compound 26, ((1′R,2′R)-5′-(hydroxymethyl)-4-(2-methyloctan-2-yl)-2′-(prop-1-en-2-yl)-1′,2′,3′,4′-tetrahydro-[1,1′-biphenyl]-2,6-diol)]	Log P = 6.52 H-D:3,H-R = 3
CCCCCCC(C)(C)c1cc(O)c([C@@H]2CC(C)CC[C@H]2C(C)C)c(O)c1 (stereo partly drawn) [compound 29, (2-((1R,2S)-2-isopropyl-5-methylcyclohexyl)-5-(2-methyloctan-2-yl)benzene-1,3-diol)]	Log P = 8.55 H-D:2,H-R = 2
CCCCCCC(C)(C)c1cc(OC)c([C@H]2C=C(CO)[C@H]3C[C@@H]2C3(C)C)c(OC)c1 [compound 30]	Log P = 6.39 H-D:1,H-R = 3
CCCCCCC(C)(C)c1cc(OC)c(C2C=C(CO)[C@@H]3C[C@H]2C3(C)C)c(OC)c1 (some centres unmarked) [compound 31]	Log P = 6.39 H-D:1,H-R = 3
C=C(C)[C@@H]1CCC(C)=C[C@H]1c1c(O)cc(CCCC(=O)O)cc1O [compound 36, (4-((1′R,2′R)-2,6-dihydroxy-5′-methyl-2′-(prop-1-en-2-yl)-1′,2′,3′,4′-tetrahydro-[1,1′-biphenyl]-4-yl)butyric acid)]	Log P = 4.59 H-D:3,H-R = 4
C=C(C)[C@@H]1CCC(C)=C[C@H]1c1ccc(CCCCC)cc1O [compound 48, ((1′R,2′R)-5′-methyl-4-pentyl-2′-(prop-1-en-2-yl)-1′,2′,3′,4′-tetrahydro-[1,1′-biphenyl]-2-ol)]	Log P = 6.63 H-D:1, H-R = 1
C=C(C)[C@@H]1CCC(C)=C[C@H]1c1c(O)cc(CCCCC)cc1OCC(=O)O [compound 50]	Log P = 5.95 H-D:2,H-R = 4
C=C(C)[C@@H]1CCC(C)=C[C@H]1c1c(O)cc(CCCCC)cc1OCCCN [compound 51, ((1′R,2′R)-6-(3-aminopropoxy)-5′-methyl-4-pentyl-2′-(prop-1-en-2-yl)-1′,2′,3′,4′-tetrahydro-[1,1′-biphenyl]-2-ol)]	Log P = 5.73 H-D:2,H-R = 3
C=C(C)[C@@H]1CCC(C)=C[C@H]1c1c(OC(=O)CO[Si](C)(C)C(C)(C)C)cc(CCCCC)cc1OC(=O)CO[Si](C)(C)C(C)(C)C [compound 54]	Log P = 9.55 H-D:0,H-R = 4
C=C(C)[C@@H]1CC(OC(C)=O)C(C)=C[C@H]1c1c(OC(C)=O)cc(CCCCC)cc1OC(C)=O (stereo partly drawn) [compound 57, (3-(acetyloxy)-2-[(1R,6R)-4-(acetyloxy)-3-methyl-6-(prop-1-en-2-yl)cyclohex-2-en-1-yl]-5-pentylphenyl acetate)]	Log P = 5.36 H-D:0,H-R = 3
C=C(C)[C@@H]1CCC(C)=C[C@H]1C1=C(O)C(=O)C(CCCCC)=CC1=O [compound 59, (3-hydroxy-2-[(1R,6R)-3-methyl-6-prop-1-en-2-ylcyclohex-2-en-1-yl]-5-pentylcyclohex-2,5-diene-1,4-dione)]	Log P = 5.23 H-D:1,H-R = 3
C=C(C)[C@@H]1CCC(C)=C[C@H]1C1=C(O)C(=O)C(CCCCC)=C(NCc2ccccc2)C1=O [compound 61, (2,5-cyclohexadiene-1,4-dione, 2-hydroxy-3-((1R,6R)-3-methyl-6-(1-methylvinyl)-2-cyclohexen-1-yl)-6-pentyl-5-((benzyl)amino))]	Log P = 6.23 H-D:2,H-R = 4
C=C(C)[C@@H]1CCC(C)=C[C@H]1c1c(C)cc(O)cc1O [compound 62, (5-methyl-4-[(1R,6R)-3-methyl-6-prop-1-en-2-ylcyclohex-2-en-1-yl]benzene-1,3-diol)]	Log P = 4.55 H-D:2,H-R = 2
C=C(C)[C@@H]1CCC(C)=C[C@H]1c1c(O)cc(O)cc1CCCCC [compound 63, (4-[(1R,6R)-3-methyl-6-prop-1-en-2-ylcyclohex-2-en-1-yl]-5-pentylbenzene-1,3-diol)]	Log P = 6.33 H-D:2,H-R = 2
CCCCCc1cc(O)c2c(c1)OC(C)(C)[C@@H]1CCC(C)=C[C@@H]21 [compound 66, Tetrahydrocannabinol]	Log P = 5.73 H-D:1,H-R = 2
(2-[(1R,2R)-2-[2,6- di(acetoxy)-4- pentenyl]-4- methylcyclohex-3- en-1-yl]prop-2-en- 1-yl acetate) [compound 58]	Log P = 5.31 H-D:0,H-R = 3

Same assay, conditions: Cannabidiol derivatives; pH 7.4; cited from earlier work

Compound	Log D7.4
C=C(C)[C@@H]1CCC(C)=C[C@H]1c1c(O)cc(CCCCC)c(C(=O)O)c1O [compound 5, ((1′R,2′R)-2,6-dihydroxy-5′-methyl-4-pentyl-2′-(prop-1-en-2-yl)-1′,2′,3′,4′-tetrahydro-[1,1′-biphenyl]-3-carboxylic acid)]	3.15
C=C(C)[C@@H]1CCC(C)=C[C@H]1c1c(O)cc(CCC)c(C(=O)O)c1O [compound 6, ((1′R,2′R)-2,6-dihydroxy-5′-methyl-2′-(prop-1-en-2-yl)-4-propyl-1′,2′,3′,4′-tetrahydro-[1,1′-biphenyl]-3-carboxylic acid)]	2.26
C=C(C)[C@@H]1CCC(C(=O)O)=C[C@H]1c1c(O)cc(CCCCC)cc1O [compound 10, ((1R,6R)-2′,6′-dihydroxy-4′-pentyl-6-(prop-1-en-2-yl)-1,4,5,6-tetrahydro-[1,1′-biphenyl]-3-carboxylic acid)]	2.40

Same assay, conditions: cited from earlier work

Compound	Log P
CCCCCc1cc(O)c(C/C=C(\C)CCC=C(C)C)c(O)c1 [compound 64, (2-[(2E)-3,7-dimethylocta-2,6-dienyl]-5-pentylbenzene-1,3-diol)]	Log P = 7.05 H-D:2,H-R = 2
